The values that follow come from patent publication US11351121B2, “Calcium alginate dosage formulations, and methods of making and using thereof” (Temple University—Of The Commonwealth System of Higher …, priority 2015, dated 2022).

Data set [1] is described as follows: Dissolution of formulations A-K: acid stage (0.1 N HCl two hours) then buffer stage. In kind it is physicochemical. The conditions noted are these: for T80: buffer stage pH 7.2 phosphate buffer after 0.1 N HCl two hours; for % released in acid stage: after two hours. The method, then:
(§1) A dissolution study was performed on each of the different tablets to determine their dissolution profiles. Dissolution USP apparatus II (Paddle) was initially used. […] Rotation speed was 50 RPM and the temperature was 37.0±0.5° C. The dissolution media used was 900 ml of 0.1 N hydrochloric acid in each vessel. After 2 hours the dissolution media was changed to 900 ml of standard 50 mM pH 7.2 potassium phosphate buffer. A 1 ml sample was withdrawn at each time. The samples were analyzed by HPLC.
HPLC analysis: an Agilent 1100 series HPLC with auto-sampler and dual wavelength detector was used. The mobile phase was acetonitrile to water with 0.5% formic acid (60:50 v/v).
Methods: different formulations were developed. […] The ingredients of all the formulations were mixed with deionized water at room temperature. The basket method described in chapter two was used to fabricate the tablets. 2 or 1.5 ml of the gel was dispensed into the basket as indicated.
Release profiles of the tablets were investigated in different buffer capacities and pH values. The tablets were pretreated in the acid stage for two hours before transferring them to the buffer stage.

Data set [2] is described as follows: Drug loss during the cross-linking process. In kind it is physicochemical. The conditions noted are these: previous formulations (with glycerol, lactose, sucrose).
Data set [3] can be described thus: Dissolution of compressed caffeine tablets (Carver press, Minipress IIBD). Format: physicochemical. As to conditions: compressed tablet with alginate film coating. The method, then: Coated Tablet Results: different weight gains were tested to try to achieve the delayed release profile.
Because it was somewhat more difficult to produce tablets with similar hardness on the Minipress using the formulation used on the Carver press, lactose was added to increase the hardness of the tablets.

For data set [4] the following is noted: cited from earlier work.
Data set [5] is described as follows: Dissolution study of calcium alginate tablets, USP apparatus I (basket), 0.1 N HCl 2 hours then pH 7.2 phosphate buffer. As to conditions: after two hours. Format: physicochemical. The method, then:
Analysis: an Agilent 1100 series HPLC with autosampler and dual wavelength detector was used. The mobile phase was acetonitrile to water with 0.5% formic acid (60:50 v/v). The flow rate was 1.2 mL/min and the sample injection volume was 50 μL and the wavelength of detection was 214 nm. The column used was a 150 by 4.6 mm Eclipse Plus C18 column (Agilent).
as §1

Data set [6] is described as follows: Dissolution of calcium alginate tablets in different dissolution media (deionized water, EDTA, EDTA+CaCl2). In kind it is physicochemical. As for the experimental part: In order to investigate the role of solutes and pH of the media on the erosion process, calcium alginate tablets made with same formulation were treated in different dissolution media.
The dissolution of the drug from the Ca Alginate dosage form was dependent on two things. First the pH of the media had to be neutral or high. Second the media had to have the ability to complex with the Calcium in solution. […] The drug release at pH 7.2 in media with either EDTA or phosphate buffer was complete in 6 hours. Drug release in 0.1 N HCl was less than 5%.

For data set [7] the following is noted: poly(ethyloxaline)/PMAA matrix disks, 0.9% saline; cited from earlier work.

“Also recorded” adds a separate entry of the source.

Consider `O=C(O)c1ccccc1` [Benzoic acid, benzoic acid], for which the “drug load released during residence time in the acid stage” value in data set [1] (benzoic acid, previous formulations (with glycerol, lactose, sucrose)) is listed as “more than 30%”. Moreover, the T80 in data set [1] (formulation B) was determined as 6.76 h. Also, in data set [1] (formulation C), the “released in the acid stage after two hours” value is given as “about 18%” and the T80 is 6.4 h. Moreover, the “% released in acid stage” value in data set [1] (formulation K) came out at 7%. Further, in data set [1] (formulation K, buffer stage), the “erosion of tablets at pH 3 and pH 4” value is recorded as “no erosion was detected”; the “erosion of tablets at pH 5” value is “started to erode but at a slower rate compared to pH 7.2”. The “effect of higher buffer capacity on release rate” value in data set [1] (formulation K, 100 mM phosphate buffer, pH 7.2) is “minimum effect on the release rate”. For the same compound, the “effect of lower buffer capacity on drug release” value in data set [1] (formulation K, 25 and 10 mM phosphate buffer, pH 7.2) is listed as “a slower drug release”. In addition, the “benzoic acid lost during the cross-linking process” value in data set [2] is given as “more than 30%”.
`Cn1c(=O)c2c(ncn2C)n(C)c1=O` [Caffeine, caffeine]: in data set [3], the “caffeine release by 12 hours” value came out at 80% and the “time for which caffeine is retained” value was “up to 8 hours”. For the same compound, in data set [1] (formulation K), the “% released in acid stage” value is 18%.
Regarding `COc1ccccc1OCC(O)CO` (stereo not drawn) [Guaifenesin, guaifenesin], in data set [1] (formulation K), the “% released in acid stage” value amounted to 17%. Also, the solubility result in data set [4] is “highly soluble”.
As to `CC(C)Cc1ccc(C(C)C(=O)O)cc1` (stereo not drawn) [Ibuprofen, ibuprofen], the “drug released in 0.1 N HCl media” value in data set [5] is given as “less than 5%”. Further, the figures for the T80 in data set [1] (formulation B) and in data set [1] (formulation C) were 4.8 h and 6.71 h, respectively. For the same compound, the “% released in acid stage” value in data set [1] (formulation K) is less than 1%. The “release of the drug in pH 7.2 deionized water” value in data set [6] (calcium alginate tablets, pH 7.2 deionized water) is reported as “no significant release; also recorded: no drug release”. The “time to complete drug release” value in data set [6] (pH 7.2 media with either EDTA or phosphate buffer) came out at 6 h. Besides, the “drug release in 10 mM EDTA dissolution medium” value in data set [6] (tablets with 1 g stearic acid, 1 molar CaCl2 3 minutes, 10 mM EDTA) is listed as “Complete drug release”. Further, the “erosion or release in EDTA solution treated with calcium chloride” value in data set [6] (tablets with 1 g stearic acid, 1 molar CaCl2 3 minutes, 10 mM EDTA+30 mM CaCl2) is recorded as “No erosion or release”.
“insulin: regular zinc insulin in a poly(ethyloxaline)/PMAA matrix (Kwon et al.)”: the “insulin released during the 3 days equilibrium period in saline” value in data set [7] is given as “less than 4 % of the initial insulin load”.
